# According to US20220338465A1, “FLUIDIC PLATFORMS FOR PERFUSABLE VASCULARIZED TISSUES” (Massachusetts Institute of Technology, priority 2021, published 2022):
# Entries after “also recorded” stand apart in the source; their conditions may differ.
# Columns and labels:
# HUVEC monoculture = experiment: Inhibitory tests on MVN formation by HUVEC monoculture in fibrin gel under IF, single channel device; type: cell-based, human
# Protocol: (§1) FIGS. 8A-8E are graphs showing that IF enhances the vasculogenesis ability of EC through upregulation of MMP-2. MVN was formed statically with HUVEC monoculture in 3-channel device MVN was formed with HUVEC monoculture in single channel device under IF induced by 10 mm H2O pressure difference, or with various inhibitors added: 100 μM PAI-1, 200 U/ml aprotinin, 50 μM marimast, 50 μM NSC 405020, 100 μg/ml MMP-1 neutralizing antibody and 100 μg/ml control antibody. Samples were pooled at day 3. n=3 FIGS. 8A-8D are graphs showing the statistical analysis of morphological parameters and perfusability of perfusable vessels cultured with various concentration of ARP-100. IF induced by 10 mm H2O pressure difference were applied to all cases. n=5 devices for control, n=3 devices for each inhibitor treated group. Significance was calculated with two sample t tests. ***P<0.01. FIG. 8E is a graph of vascular permeability measurements of 40 kDa dextran for perfusable MVNs formed under various conditions. n=3 devices for each group, 3 measurements were performed in each device at different ROIs.
# (§2) Green fluorescent protein (“GFP”) tagged human umbilical vein endothelial cells (HUVECs) and human lung fibroblasts (HLFs) were seeded in a 7:1 ratio for all static and IF experiments. Devices were imaged under confocal microscopy with dextran dye perfused at day 6, when MVN were interconnected and perfusable. Devices were seeded with HUVECs and HLFs in combination and HUVECs alone.
# (§3) Perfusability is a crucial factor when evaluating the quality of engineered MVN, since the major function of vessels is to transport nutrients, oxygen, metabolic wastes and various cells through perfusable lumens. Perfusability is measured as the ratio between dextran dye cover area (perfusable vessels) and GFP HUVEC cover area (all the vessels). […] To better interpret perfusability, MVN with at least one perfusable vessels across the gel region is defined as partially perfusable, and MVN with perfusability over 80% is defined as fully perfusable.
# HUVEC monoculture of the same concentration were also seeded in single channel devices of FIG. 5B and subjected to IF.
# Culture media was also supplemented with high concentration (100 uM) plasminogen activator inhibitor-1, which inhibits both uPA and tPA, or aprotinin, which inhibits plasmin.
# ARP-100 (IC50 values are 12, 200, 4500, >50000 and >50000 nM for MMP-2, -9, -3, -1, -7, respectively) and NSC 405020 (selective inhibitor of the collagenolytic activity of MT1-MMP without affecting the catalytic activity of cellular MT1-MMP) were tested as specific inhibitors for MMP-2 and MMP-14. 14. High concentrations of anti-MMP-1 neutralizing antibody were used to inhibit MMP-1 activity
# HUVEC and HLF coculture = experiment: MVN formation by HUVEC and HLF coculture under IF with MMP-2 inhibitor; type: cell-based, human; settings: 20 uM
# Protocol: FIGS. 10A-10D are graphs showing that IF enhances formation of fully perfusable microvascular network made by HUVEC and HLF. FIGS. 10A-10D are Statistical analysis of morphological parameters and perfusability of perfusable vessels cultured with various concentration of ARP-100. n=6 devices for control, n=3 devices for each inhibitor treated group. Significance was calculated with two sample t tests. ***P<0.01.
# as §2, §3
# MMP-9 = MMP-9 (Homo sapiens, UniProt P14780); settings: read-out: IC50 for MMP-9; cited from earlier work
# MMP-9, sequence (P14780 94-707): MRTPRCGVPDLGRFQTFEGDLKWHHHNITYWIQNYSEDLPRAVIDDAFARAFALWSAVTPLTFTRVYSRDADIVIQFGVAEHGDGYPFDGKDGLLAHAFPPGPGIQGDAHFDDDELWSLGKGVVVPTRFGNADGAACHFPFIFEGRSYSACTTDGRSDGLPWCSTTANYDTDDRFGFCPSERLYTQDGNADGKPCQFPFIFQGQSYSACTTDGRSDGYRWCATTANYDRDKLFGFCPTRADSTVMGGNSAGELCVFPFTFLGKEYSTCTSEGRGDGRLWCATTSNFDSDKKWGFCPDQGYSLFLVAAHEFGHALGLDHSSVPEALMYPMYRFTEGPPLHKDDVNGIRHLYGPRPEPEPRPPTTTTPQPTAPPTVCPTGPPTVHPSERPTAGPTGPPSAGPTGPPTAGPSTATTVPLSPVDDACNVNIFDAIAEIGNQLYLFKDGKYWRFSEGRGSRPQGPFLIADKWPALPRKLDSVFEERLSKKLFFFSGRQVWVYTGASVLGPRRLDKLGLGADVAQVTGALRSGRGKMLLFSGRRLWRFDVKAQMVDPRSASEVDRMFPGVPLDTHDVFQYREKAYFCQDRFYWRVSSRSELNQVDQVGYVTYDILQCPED
# MMP-3 = MMP-3 (Homo sapiens, UniProt P08254); settings: cited from earlier work
# MMP-3, sequence (P08254 100-477): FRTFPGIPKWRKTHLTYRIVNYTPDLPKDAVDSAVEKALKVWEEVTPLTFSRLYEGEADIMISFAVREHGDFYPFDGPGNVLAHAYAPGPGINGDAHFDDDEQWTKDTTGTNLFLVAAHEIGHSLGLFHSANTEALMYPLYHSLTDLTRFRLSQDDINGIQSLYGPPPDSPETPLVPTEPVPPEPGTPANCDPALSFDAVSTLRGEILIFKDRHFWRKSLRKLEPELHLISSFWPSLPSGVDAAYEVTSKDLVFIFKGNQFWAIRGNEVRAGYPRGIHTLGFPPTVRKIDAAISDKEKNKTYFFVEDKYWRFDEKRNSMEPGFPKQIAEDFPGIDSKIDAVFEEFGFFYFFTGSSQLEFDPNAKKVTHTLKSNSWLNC
# MMP-7 = molecular target: T1, MMP-7 (Homo sapiens, UniProt P09237); settings: cited from earlier work
# T1 sequence (P09237 95-267): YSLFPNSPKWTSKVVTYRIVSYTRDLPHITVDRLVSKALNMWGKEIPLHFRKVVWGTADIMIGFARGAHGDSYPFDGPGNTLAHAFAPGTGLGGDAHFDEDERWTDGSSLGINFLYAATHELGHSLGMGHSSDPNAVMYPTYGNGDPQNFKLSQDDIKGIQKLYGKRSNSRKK
# MMP-1 = molecular target: T2, MMP-1 (Homo sapiens, UniProt P03956); settings: cited from earlier work
# T2 sequence (P03956 100-469): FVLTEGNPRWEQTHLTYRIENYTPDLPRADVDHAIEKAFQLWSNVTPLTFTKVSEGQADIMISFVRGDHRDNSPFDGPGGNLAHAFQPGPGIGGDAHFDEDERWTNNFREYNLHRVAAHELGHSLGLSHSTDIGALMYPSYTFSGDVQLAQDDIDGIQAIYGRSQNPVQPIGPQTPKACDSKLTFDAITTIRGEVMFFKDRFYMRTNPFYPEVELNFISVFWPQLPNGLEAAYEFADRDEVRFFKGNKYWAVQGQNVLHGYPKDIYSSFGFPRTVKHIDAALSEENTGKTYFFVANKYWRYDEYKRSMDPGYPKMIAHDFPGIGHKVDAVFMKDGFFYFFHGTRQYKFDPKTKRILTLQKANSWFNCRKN
# [1] = test system: MVN formed by HUVEC monoculture; experiment: Vascular permeability of 40 kDa dextran in perfusable MVN; type: cell-based, human; settings: HUVEC monoculture with 10 μM inhibitor under IF
# Protocol: as §1, with “FIG. 8E is a graph of vascular permeability measurements of 40 kDa dextran for perfusable MVNs formed under various conditions. n=3 devices for each group, 3 measurements were performed in each device at different ROIs.” left out
# In summary, MVN formed without supporting cells tends to be leakier. Since vascular permeability is a critical aspect of functionality of engineered MVN, vascular permeability of 40 kD dextran was measured and compared under various conditions where perfusable vessels can be robustly formed. […] Moreover, all the measurements were in the order of 10^−8 cm/s, which are quite low for vascular permeability measured using 40 kDa dextran. […]
# [2] = test system: primary human brain endothelial cells (BECs), brain pericytes, and astrocytes; experiment: BBB MVN formation under IF with MMP-2 specific inhibitor; type: cell-based
# Protocol: BBB MVN were formed, consisting of primary human brain endothelial cells (BECs), brain pericytes, and astrocytes.
# Triculture were then seeded into single channel devices and grown under IF.
# All MVN tissues were immunstained and studied for histology and morphology. Quantitative PCR was also performed to measure MMP-2 levels. The effect of a MMP-2 specific inhibitor was also tested in the BBB model to antagonize the effect induced by IF, as observed in MVNs formed with HUVEC monoculture or HUVEC and HLF co-culture.
# MMP-2 = molecular target: T3, MMP-2 (Homo sapiens, UniProt P08253); settings: cited from earlier work
# T3 sequence (P08253 110-660): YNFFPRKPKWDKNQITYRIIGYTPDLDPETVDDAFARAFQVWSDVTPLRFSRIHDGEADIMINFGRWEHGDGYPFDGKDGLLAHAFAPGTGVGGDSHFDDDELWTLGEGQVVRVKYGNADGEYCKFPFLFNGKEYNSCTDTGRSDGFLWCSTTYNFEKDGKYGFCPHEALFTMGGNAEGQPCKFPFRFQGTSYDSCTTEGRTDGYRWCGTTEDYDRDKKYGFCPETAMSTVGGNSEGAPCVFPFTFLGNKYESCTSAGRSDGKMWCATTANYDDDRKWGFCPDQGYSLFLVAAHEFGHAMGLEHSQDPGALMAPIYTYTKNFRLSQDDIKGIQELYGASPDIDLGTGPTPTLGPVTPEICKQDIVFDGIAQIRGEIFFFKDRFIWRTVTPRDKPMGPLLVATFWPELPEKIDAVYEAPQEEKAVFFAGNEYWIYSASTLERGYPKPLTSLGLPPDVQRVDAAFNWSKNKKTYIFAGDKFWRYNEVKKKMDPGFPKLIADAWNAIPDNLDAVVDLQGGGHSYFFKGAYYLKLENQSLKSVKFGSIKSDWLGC
molecule,measurement,setting,value
CNC(=O)[C@@H](NC(=O)[C@H](CC(C)C)[C@H](O)C(=O)NO)C(C)(C)C [marimast],vessel formation,"HUVEC monoculture; 50 μM, 5 days",completely disrupted the vessel formation process
plasminogen activator inhibitor-1,development of fully perfusable MVN,HUVEC monoculture; 100 uM in culture media,did not affect the development of fully perfusable MVN
CC(C)ON(CC(=O)NO)S(=O)(=O)c1ccc(-c2ccccc2)cc1 [ARP-100],"MVN morphology (vessel diameter, coverage area, branches)",HUVEC monoculture; 10 μM,"significantly narrower vessels, reduced coverage area and increased branches; also recorded: effectively reduced the average diameter and coverage area of vessels"
same,perfusability of MVN,"HUVEC monoculture; 10 μM, in comparison with control group",perfusability well maintained
same,perfusion of MVN with dextran dye,HUVEC monoculture; 20 μM,no vessels can be successfully perfused with dextran dye
same,network structure development,"HUVEC monoculture; 50 uM, day 5",complete failure in developing network structure
same,perfusability of MVN,HUVEC and HLF coculture,can maintain high perfusability
same,IC50,MMP-9,200 nM
same,IC50,MMP-3,4500 nM
same,IC50,MMP-7,> 50000 nM
same,IC50,MMP-1,> 50000 nM
same,vascular permeability of 40 kD dextran,[1],~10^−8 cm/s
same,BBB network vessel morphology,"[2]; day 3, 20 uM compared with 10 μM",thinner and sparser vessels
same,BBB network perfusability and morphology,"[2]; day 6, higher concentration (20 uM)",disconnected thin network segments without any perfusable vessels
same,BBB network perfusability and morphology,"[2]; day 6, low concentration (10 μM)",became perfusable with much thinner vessels compared to untreated ones
same,IC50,MMP-2,12 nM
CCCC(C)NC(=O)c1ccc(Cl)c(Cl)c1 (stereo not drawn) [NSC 405020],changes in formed MVN,HUVEC monoculture; 50 μM,didn't induce any noticeable changes in formed MVN
aprotinin,development of fully perfusable MVN,HUVEC monoculture; 200 U/ml in culture media,did not affect the development of fully perfusable MVN
